The record followed here is patent publication US20080306076A1, “MODULATION OF CHEMOSENSORY RECEPTORS AND LIGANDS ASSOCIATED THEREWITH” (SENOMYX, INC., priority 2007, published 2008).

Structures are written as SMILES. Substitutions are numbered along the chain they refer to.

Assay [1] addresses T1, hT1R1 S306A (Homo sapiens, UniProt Q7RTX1, S306A).
T1 construct: expressed in transfected cells; host or cells: HEK293, transient transfection
T1 sequence (Q7RTX1 21-841 S306A): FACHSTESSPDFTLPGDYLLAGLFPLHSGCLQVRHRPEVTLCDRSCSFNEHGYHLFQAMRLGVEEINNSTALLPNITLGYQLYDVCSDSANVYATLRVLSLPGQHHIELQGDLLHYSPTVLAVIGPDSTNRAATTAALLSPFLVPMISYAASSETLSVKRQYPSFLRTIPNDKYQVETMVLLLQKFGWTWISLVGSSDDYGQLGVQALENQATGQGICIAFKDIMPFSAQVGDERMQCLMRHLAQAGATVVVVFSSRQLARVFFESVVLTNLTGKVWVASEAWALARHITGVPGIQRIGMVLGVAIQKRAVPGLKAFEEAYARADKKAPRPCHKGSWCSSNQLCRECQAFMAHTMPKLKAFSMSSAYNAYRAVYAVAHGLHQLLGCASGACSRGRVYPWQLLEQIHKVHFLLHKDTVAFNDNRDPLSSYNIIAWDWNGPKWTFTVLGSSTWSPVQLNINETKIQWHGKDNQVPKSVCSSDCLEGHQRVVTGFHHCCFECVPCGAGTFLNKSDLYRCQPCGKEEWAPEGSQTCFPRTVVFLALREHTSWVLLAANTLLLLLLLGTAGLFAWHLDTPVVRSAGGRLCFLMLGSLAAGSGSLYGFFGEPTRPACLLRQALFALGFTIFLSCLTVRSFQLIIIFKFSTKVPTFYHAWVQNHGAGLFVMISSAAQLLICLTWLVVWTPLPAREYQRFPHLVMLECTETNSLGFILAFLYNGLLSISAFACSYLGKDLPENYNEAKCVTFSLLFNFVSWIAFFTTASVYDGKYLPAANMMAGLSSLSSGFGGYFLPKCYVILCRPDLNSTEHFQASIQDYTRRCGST
T1 sequence (Q923K1 21-858 partner): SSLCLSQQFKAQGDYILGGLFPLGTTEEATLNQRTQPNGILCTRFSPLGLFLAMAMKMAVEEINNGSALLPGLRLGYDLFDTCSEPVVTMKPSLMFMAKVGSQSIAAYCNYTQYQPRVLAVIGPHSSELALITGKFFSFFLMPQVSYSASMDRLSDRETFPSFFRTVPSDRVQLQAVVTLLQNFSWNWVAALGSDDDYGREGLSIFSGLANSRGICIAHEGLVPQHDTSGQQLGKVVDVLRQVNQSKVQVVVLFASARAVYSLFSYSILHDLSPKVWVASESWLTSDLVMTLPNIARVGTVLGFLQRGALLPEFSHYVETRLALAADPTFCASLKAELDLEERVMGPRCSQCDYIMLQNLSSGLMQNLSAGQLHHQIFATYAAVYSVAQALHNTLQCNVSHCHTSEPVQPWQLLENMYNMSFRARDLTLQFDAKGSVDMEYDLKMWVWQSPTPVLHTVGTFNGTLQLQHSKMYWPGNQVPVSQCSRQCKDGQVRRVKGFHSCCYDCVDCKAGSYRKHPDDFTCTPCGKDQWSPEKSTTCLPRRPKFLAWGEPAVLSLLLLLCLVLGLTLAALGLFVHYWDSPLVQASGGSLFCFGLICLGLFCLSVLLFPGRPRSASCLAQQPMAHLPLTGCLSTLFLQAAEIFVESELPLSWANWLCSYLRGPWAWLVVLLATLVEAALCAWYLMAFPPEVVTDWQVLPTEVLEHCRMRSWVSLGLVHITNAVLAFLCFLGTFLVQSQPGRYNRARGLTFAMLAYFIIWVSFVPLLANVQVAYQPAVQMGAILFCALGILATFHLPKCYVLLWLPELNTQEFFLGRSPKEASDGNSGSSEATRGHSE
The assay can be described thus: Mutagenesis study, hT1R1 mutant S306A. Format: cell-based. Particulars: S306 mutation. The source says: (§1) In order to further define the interaction sites of umami stimuli, we performed site-directed mutagenesis on human T1R1 VFT. The mutagenesis was done using the routine PCR-based method. […] were transiently transfected into HEK293 cell together with the rat T1R3 wild type cDNA, and the transfected cells were characterized using an automated FLIPR machine or a calcium imaging system as described in our previous patent applications.

In assay [2] the target is T2, hT1R1 R277A (Homo sapiens, UniProt Q7RTX1, R277A).
T2 construct: expressed in transfected cells; host or cells: HEK293, transient transfection
T2 sequence (Q7RTX1 21-841 R277A): T1 sequence (Q7RTX1 21-841 S306A) with R257A, A286S
T2 sequence (Q923K1 21-858 partner): T1 sequence (Q923K1 21-858 partner)
The experiment in a line: Mutagenesis study, hT1R1 mutant R277A. The conditions noted are these: R277 mutation. Format: cell-based.
Description: as §1

Regarding `Nc1nc2c(ncn2[C@@H]2O[C@H](COP(=O)(O)O)[C@@H](O)[C@H]2O)c(=O)[nH]1` [GMP, guanosine-5′-monophosphate], the “enhancement activity of GMP” value in assay [1] and in assay [2] was “similarly affected” in each case.
